Results reported in patent publication US8921304B2, “Modified ubiquitin proteins having a specific binding activity for the extradomain B of fibronectin” (Scil Proteins GmbH, priority 2009, dated 2014).
Entries after “also recorded” stand apart in the source; their conditions may differ. Like-named read-outs stand apart in the source and are kept apart here.

What was measured:
[1] = biological target: T1, Human fibronectin lacking the ED-B domain (h6789) (Homo sapiens, UniProt P02751); experiment: concentration dependent ELISA, negative control fibronectin fragment without ED-B; type: binding; conditions: conc.-ELISA, open circles
T1 construct: Human fibronectin lacking the ED-B domain (h6789)

[2] = biological target: ED-B containing fibronectin fragment (67B89) (Homo sapiens, UniProt P02751); experiment: label-free interaction assay using BIACORE; type: binding
Experimental: Different concentrations of the variant were analyzed (for example, 0-200 nM of the variant, preferably 1041-D11) for binding to an ED-B containing fibronectin fragment (referred to as 67B89) immobilized on a CMS-chip (BIACORE®) using methods known to those skilled in the art. The obtained data were processed via the BIAevaluation software and 1:1-Langmuir-fitting. The kinetic binding constants were kon=7.6*10^5 M^−1s^−1; koff=7.7*10^−4 s^−1. The kinetic binding constants were kon=4.5*10^5 M^−1 s^−1; koff 5.0^*10^−4 s^−1.

L929 cells = experiment: L929 apoptosis assay (TNF-alpha activity); type: cell-based
Experimental: The physiological TNF-alpha-activity of TNF-alpha-modified ubiquitin based ED-B binding fusions has been determined using the L929 apoptosis assay (Flick et al., 1984 J. Immunol. Methods. 68:167-175). In this assay, TNF-alpha efficiently stimulates cell death in actinomycinD sensitized cells at EC50 values in the picomolar range.
Cells have been resuspended in medium containing FBS and antibiotics. A cell suspension of 100 μl of a densitiy of 3.5×10^5 cells/ml has been seeded into the wells of a 96 well standard cell culture plate followed by over night incubation in a humidified CO2 incubator. Thereafter, the culture medium has been removed and 50 μl of medium containing FBS, ActinomycinD and antibiotics has been added to each well followed by a further 30 min incubation time. Thereafter, 50 μl of the test items, TNF-alpha-modified ubiquitin based ED-B binding-fusions or the human recombinant TNF-alpha control, at an appropriate concentration range of between 10^−7 and 10^−18 M, have been added. After a further 48 h incubation time the metabolic activity as a measure of cell survival was determined using WST-1 reagent (Roche).
Per test item at least three independent experiments have been conducted, each of them in triplicates. […]
The quantitative evaluation is based on the EC50-value, i.e. the value according to the test item concentration promoting the survival of half of the cells.

F9 teratoma = type: in vivo; conditions: for effect on tumor growth: stage 1
Experimental: To establish the therapeutic efficacy of 1041-D11-TNFalpha, the compound was tested on F9 teratoma (see Borsi et al., 2003 Blood 102, 4384-4392) in mouse models. […] F9 teratoma is an aggressive tumor with high vascular density. […] The experimental schedule for the efficacy study was adapted from Borsi, 2003.
Stage 1 defined the pharmacologic active and tolerable dose with endpoints relating to the ratio of tumor vs. body weight, weight loss and survival. […]
Stage 2 of the study defined the dose-dependent efficacy with Melphalan having as endpoint the retardation of tumor growth (animal weight loss>10%, tumor>10% body weight, ulceration of tumor). In the study, 1041D11/mTNFa, murine TNFa, in combination with melphalan were tested.

EDB expressing cells = experiment: binding specificity of the TNF-alpha fusion in cell culture (FIG. 17E); type: cell-based
[3] = biological target: fibronectin fragment 67B89 (ED-B) (Homo sapiens, UniProt P02751); experiment: complex-formation analysis by SE-HPLC with 67B89; type: binding; conditions: 0.72 nmol each, 1 h at RT
Experimental: (§1) For the analysis of complex formation, Tricorn Superdex 75 5/150 GL columns (GE-Healthcare) (V=3 ml) was used, protein amount of 50 μl was applied. Further conditions: buffer: 1×PBS, pH 7.3, flow-rate: 0.3 ml/min, run: 45 min (injection of sample: after 15 min). Condition: 0.72 nmol 1041-D11 protein+0.72 nmol ED-B (herein referred to 67B89 or also as a negative control 6789) incubated for 1 h at RT; then applied to column for analysis of complex-formation. In FIGS. 14A and 14B, only the variant is shown in black, only the target ED-B is shown in blue, the variant binding building a complex with ED-B in pink.

[4] = biological target: T2, fibronectin fragment 6789 without ED-B (Homo sapiens, UniProt P02751); experiment: complex-formation analysis by SE-HPLC with 6789; type: binding; conditions: 0.72 nmol each, 1 h at RT
T2 construct: fibronectin fragment 6789 without ED-B
Experimental: as §1

[5] = system: human fetal lung fibroblast cells (Wi38); experiment: binding to cell culture cells, Wi38; type: cell-based; conditions: immunofluorescence
Experimental: (§2) The binding of variant 1041-D11 to cell culture cells was tested. Different cell culture cells were analysed, including normal human fetal lung fibroblast cells having high expression levels of ED-B (Wi38 cells), a mouse embryonic fibroblast cell line (Balb 3T3); a stromal cell line, derived from mouse bone marrow (ST-2) monocytes/macrophages (RAW 264.7), NHDF cells and murine fibroblast cells (LM).
The negative control cell type NHDF are primary normal fibroblast cells, which express low levels of EDB-fibronectin (data not shown).
The negative control cells type NHDF are primary normal fibroblast cells, which express low levels of EDB-fibronectin. The cells were plated in chamber-slides (NUNC, 60000 cells/ml). To analyses the binding potential the cells were fixed with 100% MeOH for 5 min at −20° C. To block unspecific binding, the cells were incubated with 5% Horse-serum 1 h 37° C. The cells were tested with the variant 1041-D11, an ED-B specific antibody FV28 CH4/F1 as positive control or UB—2 as negative control with different concentrations 1 h RT. The proving occurred about an incubation with rabbit-a-Strep-Tag-IgG (obtained from GenScript A00875, 1:500) for 1 h and incubation with a-rabbit-IgG*Alexa488-AK (obtained from Invitrogen A11008, 1:1000) for 1 h. The nuclei were stained with DAPI. […] The first 2 lines show the variant and positive control on Wi38-cell line.

murine Balb 3T3-cells = experiment: binding to cell culture cells, Balb 3T3; type: cell-based; conditions: 1, 10, 50 nM
Experimental: as §2
(§3) Similar experiments were performed using different cells types, for example Balb3T3 (ATCC, Kat-Nr. 30-2002), Raw (Lonza, Kat-Nr. BE12-115F/U1), ST-2 (Lonza, Ka t-Nr. BE12-115F/U1).

murine ST-2-cells = experiment: binding to cell culture cells, ST-2; type: cell-based; conditions: 1, 10, 50 nM
Experimental: as §2, §3

[6] = biological target: T3, ED-B (F9 tumor vasculature) (Mus musculus, UniProt P11276); experiment: immunohistochemistry on F9 tumor tissue sections; type: binding, mice; conditions: seven samples; 10 nM to 100 nM / 500 nM
T3 construct: 1041-D11 specifically decorates the vasculature in tissue sections from F9 tumors; from tissue; host or cells: F9 tumor tissue sections from mice
Experimental: F9 tumor tissues from seven samples were evaluated. […] ED-B is a highly specific marker for tumor vasculature. The target protein EDB is located on the abluminal side of the vessels. 1041-D11 specifically decorates the vasculature in tissue sections from F9 tumors. […] Thus, fusion proteins based on modified ubiquitin specifically binding to ED-B are suitable an ED-B based targeted therapy for cancer.

[7] = system: 48 tissues in FDA relevant panel; experiment: tissue panel staining (48 tissues); type: binding
F9 tumor tissues = experiment: accumulation in F9 tumor tissue; type: in vivo, mice; conditions: time points between 30 min and 16 h
ED-B = ED-B (Homo sapiens, UniProt P02751); experiment: ED-B binding analysis, method not stated (FIG. 7, general statements)
Sequence of ED-B (P02751 1266-1356 limits assumed): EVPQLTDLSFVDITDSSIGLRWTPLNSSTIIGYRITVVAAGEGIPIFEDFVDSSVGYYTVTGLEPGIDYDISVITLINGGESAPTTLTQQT

Sequence of ED-B containing fibronectin fragment (67B89) (P02751 1085-1537 limits assumed): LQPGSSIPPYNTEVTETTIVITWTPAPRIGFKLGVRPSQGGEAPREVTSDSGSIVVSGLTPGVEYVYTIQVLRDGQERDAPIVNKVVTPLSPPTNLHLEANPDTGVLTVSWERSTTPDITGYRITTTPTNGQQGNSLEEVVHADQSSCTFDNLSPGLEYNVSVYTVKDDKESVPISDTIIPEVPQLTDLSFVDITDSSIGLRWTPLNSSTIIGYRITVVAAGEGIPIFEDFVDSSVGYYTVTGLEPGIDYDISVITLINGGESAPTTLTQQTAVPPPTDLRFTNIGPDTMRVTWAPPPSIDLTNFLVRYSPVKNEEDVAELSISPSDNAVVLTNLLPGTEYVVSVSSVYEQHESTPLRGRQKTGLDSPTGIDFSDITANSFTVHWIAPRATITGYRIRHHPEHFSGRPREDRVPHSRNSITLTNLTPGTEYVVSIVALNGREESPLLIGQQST
T2 sequence (P02751 1089-1449 isoform P02751-1): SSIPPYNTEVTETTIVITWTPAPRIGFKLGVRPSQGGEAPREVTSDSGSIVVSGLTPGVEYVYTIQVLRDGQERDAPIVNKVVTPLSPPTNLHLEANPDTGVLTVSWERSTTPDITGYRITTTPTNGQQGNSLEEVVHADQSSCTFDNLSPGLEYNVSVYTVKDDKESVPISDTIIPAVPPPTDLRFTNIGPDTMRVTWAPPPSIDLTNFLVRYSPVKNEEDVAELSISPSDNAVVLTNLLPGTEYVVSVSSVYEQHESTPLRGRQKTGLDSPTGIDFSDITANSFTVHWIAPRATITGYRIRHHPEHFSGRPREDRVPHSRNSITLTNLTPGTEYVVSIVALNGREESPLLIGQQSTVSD
Sequence of fibronectin fragment 67B89 (ED-B) (P02751 1085-1537 limits assumed): as the sequence (P02751 1085-1537 limits assumed) above
T1 sequence (P02751 1085-1446 isoform P02751-1): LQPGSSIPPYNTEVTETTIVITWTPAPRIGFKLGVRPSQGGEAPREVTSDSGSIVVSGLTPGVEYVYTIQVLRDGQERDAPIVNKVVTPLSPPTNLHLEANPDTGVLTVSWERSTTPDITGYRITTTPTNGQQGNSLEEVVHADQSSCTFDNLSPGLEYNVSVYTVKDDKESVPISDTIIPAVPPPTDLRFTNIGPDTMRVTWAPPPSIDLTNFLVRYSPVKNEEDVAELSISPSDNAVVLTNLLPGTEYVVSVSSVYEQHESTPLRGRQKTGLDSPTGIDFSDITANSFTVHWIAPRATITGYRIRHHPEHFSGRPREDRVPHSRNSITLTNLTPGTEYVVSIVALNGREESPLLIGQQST
T3 sequence (P11276 33-2477): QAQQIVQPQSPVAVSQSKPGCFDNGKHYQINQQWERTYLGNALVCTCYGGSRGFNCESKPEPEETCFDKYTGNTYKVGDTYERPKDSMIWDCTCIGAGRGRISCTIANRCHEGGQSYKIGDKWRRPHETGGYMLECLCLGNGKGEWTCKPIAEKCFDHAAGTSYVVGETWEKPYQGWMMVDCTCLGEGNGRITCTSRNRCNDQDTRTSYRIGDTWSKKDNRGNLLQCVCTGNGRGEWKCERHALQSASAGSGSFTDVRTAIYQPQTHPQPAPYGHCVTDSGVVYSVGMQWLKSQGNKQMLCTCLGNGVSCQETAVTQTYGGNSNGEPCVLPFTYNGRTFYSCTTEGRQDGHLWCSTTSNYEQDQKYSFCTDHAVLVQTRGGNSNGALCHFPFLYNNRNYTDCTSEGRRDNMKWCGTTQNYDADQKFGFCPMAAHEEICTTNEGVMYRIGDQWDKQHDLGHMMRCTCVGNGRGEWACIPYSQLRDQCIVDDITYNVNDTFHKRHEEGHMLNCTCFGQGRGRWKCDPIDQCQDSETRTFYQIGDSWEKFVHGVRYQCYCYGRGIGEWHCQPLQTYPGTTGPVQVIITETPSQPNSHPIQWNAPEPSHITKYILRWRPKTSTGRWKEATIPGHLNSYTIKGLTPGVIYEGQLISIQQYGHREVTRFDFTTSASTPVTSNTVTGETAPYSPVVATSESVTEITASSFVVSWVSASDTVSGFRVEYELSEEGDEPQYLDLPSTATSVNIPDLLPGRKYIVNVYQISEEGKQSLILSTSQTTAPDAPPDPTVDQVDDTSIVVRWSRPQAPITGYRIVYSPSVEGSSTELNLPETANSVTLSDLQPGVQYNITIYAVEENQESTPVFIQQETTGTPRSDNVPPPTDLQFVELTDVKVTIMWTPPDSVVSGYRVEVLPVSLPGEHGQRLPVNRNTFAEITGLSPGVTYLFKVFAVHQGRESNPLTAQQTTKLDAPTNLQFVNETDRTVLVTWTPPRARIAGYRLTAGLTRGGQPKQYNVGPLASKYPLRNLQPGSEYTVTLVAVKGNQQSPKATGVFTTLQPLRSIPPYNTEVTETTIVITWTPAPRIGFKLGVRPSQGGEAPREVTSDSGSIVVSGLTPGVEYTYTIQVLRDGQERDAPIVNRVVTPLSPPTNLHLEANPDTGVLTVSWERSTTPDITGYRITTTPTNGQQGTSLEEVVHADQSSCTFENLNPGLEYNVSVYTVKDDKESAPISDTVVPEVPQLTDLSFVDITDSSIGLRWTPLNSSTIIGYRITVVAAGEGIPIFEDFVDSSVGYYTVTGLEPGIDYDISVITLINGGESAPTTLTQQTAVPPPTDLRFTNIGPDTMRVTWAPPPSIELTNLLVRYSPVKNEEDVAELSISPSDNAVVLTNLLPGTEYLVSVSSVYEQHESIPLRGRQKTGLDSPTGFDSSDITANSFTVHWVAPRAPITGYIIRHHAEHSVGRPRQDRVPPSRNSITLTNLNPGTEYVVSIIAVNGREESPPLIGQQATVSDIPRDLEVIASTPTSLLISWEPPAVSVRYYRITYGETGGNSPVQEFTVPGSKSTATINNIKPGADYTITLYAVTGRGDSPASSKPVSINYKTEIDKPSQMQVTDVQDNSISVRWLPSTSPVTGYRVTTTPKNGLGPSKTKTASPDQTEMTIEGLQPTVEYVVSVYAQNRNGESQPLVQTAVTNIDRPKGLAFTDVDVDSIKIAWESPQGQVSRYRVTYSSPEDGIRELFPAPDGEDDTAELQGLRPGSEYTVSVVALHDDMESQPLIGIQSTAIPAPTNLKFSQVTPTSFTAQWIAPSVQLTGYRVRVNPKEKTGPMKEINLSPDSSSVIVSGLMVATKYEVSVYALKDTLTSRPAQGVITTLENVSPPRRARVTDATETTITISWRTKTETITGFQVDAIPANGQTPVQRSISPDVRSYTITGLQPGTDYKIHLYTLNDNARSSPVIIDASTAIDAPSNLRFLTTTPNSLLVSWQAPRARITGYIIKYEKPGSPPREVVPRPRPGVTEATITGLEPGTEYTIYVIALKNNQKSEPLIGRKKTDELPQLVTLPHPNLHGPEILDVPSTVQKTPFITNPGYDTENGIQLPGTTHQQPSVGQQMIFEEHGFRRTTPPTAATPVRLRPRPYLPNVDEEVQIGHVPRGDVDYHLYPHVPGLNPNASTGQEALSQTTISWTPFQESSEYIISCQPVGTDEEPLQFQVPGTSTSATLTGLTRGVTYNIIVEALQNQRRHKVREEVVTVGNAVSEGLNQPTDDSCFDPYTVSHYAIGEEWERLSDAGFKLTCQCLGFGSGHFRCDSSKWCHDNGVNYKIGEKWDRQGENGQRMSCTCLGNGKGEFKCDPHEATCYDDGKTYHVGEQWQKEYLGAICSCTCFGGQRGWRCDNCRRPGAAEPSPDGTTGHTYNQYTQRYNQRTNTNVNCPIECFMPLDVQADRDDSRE

Substance | binding to negative control fragment 6789 [1] | kon [2] [M⁻¹ s⁻¹] | apoptosis inducing TNF-alpha activity (L929 cells) | relative tumor growth (F9 teratoma; in combination with Melphalan, 7 days, versus mTNFalpha with Melphalan or Melphalan alone) | effect on tumor growth (F9 teratoma; highest dose (6.75 μmol/g)) | effect on tumor growth (F9 teratoma; lowest dose (0.25 pmol/g)) | binding to EDB expressing cells (EDB expressing cells; target(+)) | cross reaction in serum without ED-B (EDB expressing cells; target(−)) | koff [2] [s⁻¹] | complex formation with 67B89 (ED-B) [3] | complex formation with 6789 (no ED-B) [4] | binding on vital Wi38 cells ([5]; different concentrations) | binding on fixed Wi38 cells ([5]; 58.7 nM and 587 nM) | binding on fixed murine Balb 3T3-cells (murine Balb 3T3-cells) | binding on fixed murine ST-2-cells (murine ST-2-cells) | staining of F9 tumor tissue sections [6] | unspecific staining in 48 tissues [7] | accumulation in F9 tumor tissue (F9 tumor tissues) | ED-B binding activity (ED-B)
1041-D11-TNFalpha: fusion protein of hetero-dimeric variant 1041-D11 and TNFα (mouse or human) | not bound | 450000 | as active as free TNF-alpha | reduces the relative tumor growth more efficiently | no suppressing effect on tumor growth | seems to retard tumor growth | specifically binds | no cross reaction | – | – | – | – | – | – | – | – | – | – | –
1041-D11: hetero-dimeric ubiquitin variant: K6W, L8W, K63R, E64K, S65F, T66P; second module K6T, L8Q, Q62W, K63S, E64N, S65W, T66E, Q2R | no binding | 760000 | – | – | – | – | – | – | 0.00077 | formation of a complex; also recorded: builds a complex | no significant binding; also recorded: no complex | binds to vital Wi38 cells with high specificity | binds to fixed Wi38 cells with high specificity | binds to murine Balb 3T3 cells with high specificity | binds to murine Balb ST-2 cells with high specificity | ED-B specific vascular staining | no unspecific staining | enriched | superior ED-B binding activity
